The numbers were not newly measured in patent US12071673B2, “Methods of diagnosis, selection, and treatment of diseases and conditions caused by or associated with methanogens” (Cedars-Sinai Medical Center, priority 2013, dated 2024), which cites them from elsewhere.

One data set deals with methanogens. The settings on record: retrospective study, 10 days; for reduction in methane: breath methane.

`C` [methane]: under “5 dogs, methane infused through mid-small bowel fistula”, the “reduction of proximal small bowel motility (average)” value is on record as 59%. Also, where the note is “in vivo animal study, methane infused into the small intestine”, the “slowing of small intestinal transit” value is listed as 59%.

For the compound `CO[C@H]1/C=C/O[C@@]2(C)Oc3c(C)c(O)c4c(O)c(c5c(nc6cc(C)ccn65)c4c3C2=O)NC(=O)/C(C)=C\C=C\[C@H](C)[C@H](O)[C@@H](C)[C@@H](O)[C@@H](C)[C@H](OC(C)=O)[C@@H]1C` [rifaximin], in the data set on methanogens, the “reduction in constipation symptoms” value is listed as 56% and the reduction in methane is reported as 28%.

In the case of neomycin, in the data set with methanogens, the “reduction in constipation symptoms” value is listed as 63% and the reduction in methane was 33%.
